Results on 40 compounds are retold here after US20110306597A1, “Nicotinamide Derivatives” (priority 2008, published 2011).

This assay deals with human recombinant H-PGDS (Homo sapiens, UniProt O60760). The experiment in a line: Fluorescence Intensity h-PGDS TBA Enzyme Assay. Format: biochemical. The settings on record: 1:175,000 human recombinant H-PGDS, highest inhibitor concentration typically 1 μM. The protocol:
Fluorescence Intensity h-PGDSTBA Enzyme Assay
Prostaglandin D Synthase (PGDS) converts the substrate prostaglandin H2 (PGH2) to prostaglandin D2. The depletion of PGH2 was measured via an Fe(II) reduction of the remaining PGH2 to malondialdehyde (MDA) and 12-HHT. The enzyme assay is based on the quantitative formation of a fluorescent complex from the non-fluorescent compounds MDA and 2-thiobarbituric acid (TBA), substantially as described in U.S. patent application publication US-2004/152148 by Lombardt.
The enzyme assay (31 μls) contained 100 mM Tris base pH 8.0, 100 μM MgCl2, 0.1 mg/ml IgG Rabbit serum, 5.0 μM PGH2 (Cayman; ethanol solution, #17020), 2.5 mM L-Glutathione (Sigma; reduced form #G4251), 1:175,000 human recombinant H-PGDS (from 1 mg/ml), 0.5% DMSO and inhibitor (varying concentration). Three μls of diluted inhibitor (dissolved in DMSO) was plated into a 384-well assay plate followed by a 25 μl addition of an enzyme solution containing h-PGDS, Tris, MgCl2, IgG and L-Glutathione. After preincubation of inhibitor and enzyme solution for 10 minutes at room temperature, the reaction was initiated with a 3 μl addition of substrate solution in 10 mM HCl. The reaction was terminated after 42 second by the addition (3 μl) of stop buffer containing FeCl2 and citric acid. After addition of 45.5 μls of TBA plates were heated for one hour in a 70 C oven. Plates were cooled at room temperature overnight and read on a plate reader the next day with excitation @ 530 nm and emission @ 565 nm.
IC50's of inhibitors were calculated with a 4-parameter fit using 11 inhibitor concentrations in duplicate with 3-fold serial dilutions. Controls on each plate included no inhibitor (zero % effect) and an inhibitor 10-fold in excess of its' IC50 (100% effect). The highest inhibitor concentration tested was typically 1 μM.

human recombinant H-PGDS, sequence (O60760 whole entry): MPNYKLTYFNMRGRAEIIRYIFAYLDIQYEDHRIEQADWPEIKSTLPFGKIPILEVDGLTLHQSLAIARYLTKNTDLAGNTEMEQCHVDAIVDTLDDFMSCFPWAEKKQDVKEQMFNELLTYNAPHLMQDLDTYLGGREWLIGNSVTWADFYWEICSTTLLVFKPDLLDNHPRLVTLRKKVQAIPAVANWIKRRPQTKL

In the case of `Cc1ncsc1CCNC(=O)c1ccc(-c2cccc(F)c2)nc1` [Example 132, 6-(3-Fluorophenyl)-N-[2-(4-methyl-1,3-thiazol-5-yl)ethyl]nicotinamide], the IC50 is 6.36 nM.
As to `O=C(NCCn1nnc2ccccc21)c1ccc(-c2cccc(F)c2)nc1` [Example 82, N-[2-(1H-Benzotriazol-1-yl)ethyl]-6-(3-fluorophenyl)nicotinamide], the IC50 was found to be 21.5 nM.
Next, `COC(=O)CCNC(=O)c1ccc(-c2cccc(C)c2)nc1` [Example 223, Methyl N-{[6-(3-methylphenyl)pyridin-3-yl]carbonyl}-beta-alaninate]: 44.1 nM; `CNS(=O)(=O)c1ccc(CNC(=O)c2ccc(-c3cccc(OC)c3)nc2)cc1` [Example 317, 6-(3-Methoxyphenyl)-N-{4-[(methylamino)sulfonyl]benzyl}nicotinamide]: 153 nM; “N-(4-Fluorophenyl)-6-(3- methoxyphenyl)nicotinamide [Example 307]”: 187 nM.
Next, `COCCN1CCC2(CC1)CC(NC(=O)c1ccc(-c3cccc(F)c3)nc1)CO2` (stereo not shown) [Example 142, 6-(3-Fluorophenyl)-N-[8-(2-methoxyethyl)-1-oxa-8-azaspiro[4.5]dec-3-yl]nicotinamide]: 25.2 nM; `COc1ccc(C(NC(=O)c2ccc(-c3cccc(F)c3)nc2)C2CC2)cc1` (stereo not shown) [Example 202, N-[Cyclopropyl(4-methoxyphenyl)methyl]-6-(3-fluorophenyl)nicotinamide]: 99.9 nM; `COc1cccc(CNC(=O)c2ccc(-c3cccc(F)c3)nc2)c1OC` [Example 33, N-(2,3-Dimethoxybenzyl)-6-(3-fluorophenyl)nicotinamide]: 2.72 nM.
In the case of `Cc1cnc(CN2CC(CNC(=O)c3ccc(-c4cccc(F)c4)nc3)OCC2=O)cn1` (stereo not shown) [Example 71, 6-(3-Fluorophenyl)-N-({4-[(5-methylpyrazin-2-yl)methyl]-5-oxomorpholin-2-yl}methyl)nicotinamide] it was 61.8 nM.
As to `Cc1ccc(CNC(=O)c2ccc(-c3ccc(F)cc3)nc2)cc1` [Example 480, 6-(4-Fluorophenyl)-N-(4-methylbenzyl)nicotinamide], the 50% inhibitory concentration (IC50) is 327 nM.
With `Cc1cc(C)n(CCCNC(=O)c2ccc(-c3cccc(F)c3)nc2)n1` [Example 131, N-[3-(3,5-Dimethyl-1H-pyrazol-1-yl)propyl]-6-(3-fluorophenyl)nicotinamide], the IC50 stood at 27.2 nM.
Next, `CCOC(=O)C(C)(C)NC(=O)c1ccc(-c2cccc(F)c2)nc1` [Example 145, Ethyl N-{[6-(3-fluorophenyl)pyridin-3-yl]carbonyl}-2-methylalaninate]: 223 nM; `Cc1cccc(-c2ccc(C(=O)NCCC3CCCCO3)cn2)c1` (stereo not shown) [Example 320, 6-(3-Methylphenyl)-N-[2-(tetrahydro-2H-pyran-2-yl)ethyl]nicotinamide]: 17.4 nM.
Next, `Cc1cccc(-c2ccc(C(=O)NCCN3CCN(Cc4ccccc4)CC3)cn2)c1` [Example 249, N-[2-(4-Benzylpiperazin-1-yl)ethyl]-6-(3-methylphenyl)nicotinamide]: 29.8 nM.
Next, `CS(=O)(=O)c1ccc(CNC(=O)c2ccc(-c3ccc(F)cc3)nc2)cc1` [Example 504, 6-(4-Fluorophenyl)-N-[4-(methylsulfonyl)benzyl] nicotinamide]: 687 nM; `O=C(NCCc1nnc(C2CC2)[nH]1)c1ccc(-c2cccc(F)c2)nc1` [Example 88, N-[2-(5-Cyclopropyl-4H-1,2,4-triazol-3-yl)ethyl]-6-(3-fluorophenyl)nicotinamide]: 9.06 nM; `CC(C)N1CCN(CCCNC(=O)c2ccc(-c3cccc(F)c3)nc2)C(=O)C1=O` [Example 106, 6-(3-Fluorophenyl)-N-[3-(4-isopropyl-2,3-dioxopiperazin-1-yl)propyl]nicotinamide]: 34.3 nM.
As for `CCOC(=O)CC[C@H](NC(=O)c1ccc(-c2ccccc2)nc1)C(=O)OCC` [Example 396, Diethyl N-[(6-phenylpyridin-3-yl)carbonyl]-L-glutamate], the IC50 amounted to 3 nM.
In the case of `O=C(NCCN1CCCC(CO)C1)c1ccc(-c2cccc(F)c2)nc1` (stereo not shown) [Example 18, 6-(3-Fluorophenyl)-N-{2-[3-(hydroxymethyl)piperidin-1-yl]ethyl}nicotinamide] it was 31.1 nM.
Next, `O=C(NCC1CCCN(c2ccccn2)C1)c1ccc(-c2cccc(F)c2)nc1` (stereo not shown) [Example 14, 6-(3-Fluorophenyl)-N-[(1-pyridin-2-ylpiperidin-3-yl)methyl]nicotinamide]: 9.18 nM; `COc1cccc(-c2ccc(C(=O)NCc3ccc(Cl)c(Cl)c3)cn2)c1` [Example 483, N-(3,4-Dichlorobenzyl)-6-(3-methoxyphenyl) nicotinamide]: 151 nM; `Cc1cccc(-c2ccc(C(=O)NC(C)C)cn2)c1` [Example 254, N-Isopropyl-6-(3-methylphenyl)nicotinamide]: 28.2 nM.
In the case of `O=C(NCc1ccco1)c1ccc(-c2ccc(F)cc2)nc1` [Example 473, 6-(4-Fluorophenyl)-N-(2-furylmethyl)nicotinamide] it was 381 nM; in that of `CS(=O)(=O)c1ccc(CNC(=O)c2ccc(-c3cccc(F)c3)nc2)cc1` [Example 420, 6-(3-Fluorophenyl)-N-[4-(methylsulfonyl)benzyl] nicotinamide], 34.1 nM; in that of `O=C(NCc1cccc(F)c1)c1ccc(-c2ccccc2)nc1` [Example 346, N-(3-Fluorobenzyl)-6-phenylnicotinamide], 4.07 nM.
For the compound `COc1cccc(-c2ccc(C(=O)NCc3ccc(SC)cc3)cn2)c1` [Example 280, 6-(3-Methoxyphenyl)-N-[4-(methylthio)benzyl]nicotinamide], the IC50 was 62.4 nM.
In the case of `O=C(NCCSCCO)c1ccc(-c2cccc(F)c2)nc1` [Example 440, 6-(3-Fluorophenyl)-N-{2-[(2-hydroxyethyl)thio]ethyl} nicotinamide] it was 14.4 nM; in that of `Cc1cccc(-c2ccc(C(=O)NCCNc3ccccc3)cn2)c1` [Example 490, N-(2-Anilinoethyl)-6-(3-methylphenyl)nicotinamide], 39.9 nM; in that of `CC(CCCC(C)(C)O)NC(=O)c1ccc(-c2cccc(F)c2)nc1` (stereo not shown) [Example 24, 6-(3-Fluorophenyl)-N-(5-hydroxy-1,5-dimethylhexyl)nicotinamide], 20.2 nM.
In the case of `COc1ccc(C(CNC(=O)c2ccc(-c3cccc(C)c3)nc2)N2CCOCC2)cc1` (stereo not shown) [Example 315, N-[2-(4-Methoxyphenyl)-2-morpholin-4-ylethyl]-6-(3-methylphenyl)nicotinamide] it was 72.5 nM; in that of `COc1cccc(-c2ccc(C(=O)NC3CCN(Cc4ccc(C)cc4)C3=O)cn2)c1` (stereo not shown) [Example 274, 6-(3-Methoxyphenyl)-N-[1-(4-methylbenzyl)-2-oxopyrrolidin-3-yl]nicotinamide], 106 nM; in that of `COc1ccc(CNC(=O)c2ccc(-c3ccc(F)cc3)nc2)cc1OC` [Example 461, N-(3,4-Dimethoxybenzyl)-6-(4-fluorophenyl) nicotinamide], 91.5 nM.
On to `O=C(NC1CCN(Cc2ccc(Cl)cc2)C1=O)c1ccc(-c2cccc(F)c2)nc1` (stereo not shown) [Example 431, N-[1-(4-Chlorobenzyl)-2-oxopyrrolidin-3-yl]-6-(3-fluorophenyl)nicotinamide], for which the IC50 was 59 nM.
In the case of `O=C(NC1CCOCC1)c1ccc(-c2ccccc2)nc1` [Example 366, 6-Phenyl-N-(tetrahydro-2H-pyran-4-yl)nicotinamide] it was 7.5 nM.
Next, `N#CC(NC(=O)c1ccc(-c2cccc(F)c2)nc1)c1ccccc1` (stereo not shown) [Example 8, N-[Cyano(phenyl)methyl]-6-(3-fluorophenyl)nicotinamide]: 25.7 nM; `COc1cccc(-c2ccc(C(=O)NCC(=O)N(C)C)cn2)c1` [Example 343, N-[2-(Dimethylamino)-2-oxoethyl]-6-(3-methoxyphenyl)nicotinamide]: 975 nM.
In the case of `COC(C)(C)CNC(=O)c1ccc(-c2ccc(F)cc2)nc1` [Example 497, 6-(4-Fluorophenyl)-N-(2-methoxy-2-methylpropyl)nicotinamide] it was ≥ 1000 nM.
As for `O=C(NCC1(O)CCCCC1)c1ccc(-c2cccc(F)c2)nc1` [Example 26, 6-(3-Fluorophenyl)-N-[(1-hydroxycyclohexyl)methyl] nicotinamide], the IC50 was found to be 41.8 nM.
Regarding `COc1cccc(-c2ccc(C(=O)NC(C)c3ccccc3)cn2)c1` (stereo not shown) [Example 339, 6-(3-Methoxyphenyl)-N-(1-phenylethyl)nicotinamide], the IC50 is 266 nM.
In the case of `COc1cccc(-c2ccc(C(=O)NCC3CCCCO3)cn2)c1` (stereo not shown) [Example 284, 6-(3-Methoxyphenyl)-N-(tetrahydro-2H-pyran-2-ylmethyl)nicotinamide] it was 519 nM.

The IC50 is the concentration that inhibits the measured activity by half.
